{"source": "patent US8470964B2", "about": "“Peptides derived from NCAM (FGLs)” (Enkam Pharmaceuticals A/S, priority 2007, dated 2013)", "key": {"[1]": {"test_system": "rat model of (25-35) β-amyloid induced neurotoxicity", "assay": "(25-35) β-amyloid induced neurotoxicity, subcutaneous administration: SRT and neuropathology", "format": "in vivo", "experimental": "FIG. 8. The effect of FGLs (administered subcutaneously at the stated doses), or vehicle on the development of cognitive impairment (deficit in short-term social memory) and neurodegeneration after (25-35) β-amyloid (A-β) fragment neurointoxication. Comparisons of RR values to a hypothetical value 0.50 were carried using one-sample t-test. Intergroup comparisons between A-β groups were carried out using One Way ANOVA and Newman-Keuls post-hoc test and comparison between A-β vehicle and sham-operated animals by un-paired t-test.\nIn the rat model of (25-35) β-amyloid induced neurotoxicity (Delobette et al., 1997; Maurice et al., 1996), (25-35) aggregated β-amyloid neurotoxin is injected intracerebroventricularly leading to progressive deterioration of short-term memory (clearly detectable using the Social Recognition Test (SRT) with a 30-minute inter-trial interval (ITI) (Kogan et al., 2000), and to neurodegeneration in cortex and hippocampus characterized by increases in amyloid burden, tau phosphorylation and micro- and macro-glia activation, as well as neuronal loss (Klementiev et al., 2007).\nIn this study, 3.2, 0.8, 0.2 mg/kg of FGLs or sterile PBS were administered daily by subcutaneous injection. Administration was started 7 days after i.c.v. administration of an aggregated form of the (25-35) β-amyloid peptide fragment and continued until day 28 when the rats were terminated.\nThe social memory performance was estimated, using the SRT 21-22 days after i.c.v. administration of the β-amyloid fragment.\nA significant neuroprotective effect of FGLs was detected in both areas. The minimum effective dose of FGLs for neuroprotection was 0.8 mg/kg, in hippocampus and 0.2 mg/kg in cingulate cortex."}, "intact adult rats": {"test_system": "intact adult rats", "assay": "Social Recognition Test (SRT), short-term social memory, subcutaneous administration", "format": "in vivo, rat", "experimental": "(§1) FIG. 3. Effects of a single administration of vehicle or of FGLs on short-term social memory as evaluated in the Social Recognition Test (SRT). FGLs (8.0 mg/kg) or vehicle (sterile water, 4.0 ml/kg) was administered s.c. and the rats were tested twice with the initial trial of SRT performed 1 h and 73 h after administration. The juvenile rat was presented twice with an inter-trial interval of 2 hours. In each experimental group data were obtained from 9 to 11 rats. Results are shown as Mean and SEM of recognition ratio (RR). […] Comparisons of RR values to a hypothetical value 0.50 were carried using one-sample t-test. **P<0.01.\nas §1, with “4.” for “3.”, “(1.0, 2.0, 4.0 and 8.0” for “(8.0”, “24” for “73”\nFIG. 5. Effects of subcutaneous administration of FGLs, FGLL and VEB1 (2 administrations at the stated doses) on short-term social memory as evaluated in the Social Recognition Test (SRT). Results are shown as Mean and SEM of recognition ratio (RR). […] Comparisons of RR values to a hypothetical value 0.50 were carried using one-sample t-test.\nThe activity of FGLs, administered subcutaneously, in enhancing social memory in intact adult rats was examined in three studies. In both studies the test system was the Social Recognition Test (SRT), which is a reliable test for the evaluation of compounds active on short-term memory (Dantzer et al., 1987). In our studies we used a protocol of SRT were a juvenile rat was presented to the test rat twice, with an inter-trial interval (ITI) of 2 hours between the two tests. […] In the first study the rats received a single subcutaneous dose (8.0 mg/kg) of FGLs and were tested 1 hour and 73 hours after administration.\nIn the second study the rats received a single subcutaneous dose of 1.0, 2.0, 4.0 or 8.0 mg/kg of FGLs and were tested 1 hour and 24 hours after administration.\nIn the third study the dose response effects (0.25, 0.80, 2.50 and 8.0 mg/kg) of subcutaneous administration of FGLs were tested. In parallel were also tested FGLL and VEB1, another truncated form of FGLL. The peptides were administered twice, 24 and 5 hours before the first SRT, and the rats were tested 5 hour and 77 hours after the last administration"}, "[2]": {"test_system": "primary cerebellar granule rat cells (CGC)", "assay": "Neurite outgrowth of cerebellar granule neurons", "format": "cell-based", "details": "CGC from 7-day old Wistar rats, 24 hrs; bell-shaped dose response", "experimental": "FIG. 2. Effects of FGLs on neurite outgrowth of early postnatal rat cerebellar neurons. CGCs were prepared from 7-day old Wistar rats and plated on uncoated eight-well Lab-Tek® chamber The peptide was added to the medium immediately after plating, and cells were maintained at 37° C., 5% CO2 for 24 hrs. CGC cultures were fixed in 4% and then immunostained against rat GAP-43. Neurite outgrowth was determined by image analysis of 200±20 neurons in each individual experiment. The length of neuronal processes per cell was estimated stereologically. The results are given as mean values±SEM from at least three independent experiments and illustrated as percentage of control values. *p<0.05 when compared with control by paired t-test.\nThis study investigated the effect of FGLs on neurite outgrowth of dissociated primary cerebellar granule rat cells (CGC) cultured in vitro.\nEfficacy is found over a range of concentrations corresponding to that of target (FGFR) activation and follows the same bell-shaped dose-response."}, "[3]": {"details": "daily s.c. from day 7, neuropathology at day 28"}, "[4]": {"details": "s.c., administered twice, 77 hours after the last administration"}}, "note": "Several values for one entry are separate records, joined by “and”; a condition that tells them apart may be missing. Equal entries are not always repeated. Entries after “also recorded” stand apart in the source; their conditions may differ. Where no end group is shown, it is not given here.", "data": [{"substance": "FGLs: two identical 11 amino acid peptides (VAENQQGKSKA), forming a dimer through a linker molecule (iminodiacetic acid); peptide amide (VAENQQGKSKA-NH2; not fully specified; also: dimer of two identical peptides through iminodiacetic acid linker, attachment site not given here)", "values": [{"measurement": "short-term memory deficit in SRT compared to placebo-treated rats", "setting": "[1]; 0.8 mg/kg s.c. daily, SRT 21-22 days after i.c.v. β-amyloid", "result": "statistically significant reduction in the short-term memory deficit"}, {"measurement": "PRESENCE OF A SIGNIFICANT PEPTIDE EFFECT: SRT short-term social recognition memory", "setting": "[1]; daily s.c. 0.2, 0.8, 3.2 mg/kg from day 7, SRT 21-22 days after i.c.v. β-amyloid", "result": "YES (p < 0.01)^1"}, {"measurement": "EFFECTIVE DOSE OR DOSE RANGE: SRT short-term social recognition memory", "setting": "[1]; daily s.c. from day 7, SRT 21-22 days after i.c.v. β-amyloid", "result": 0.8, "unit": "mg/kg"}, {"measurement": "EFFECTIVE DOSE OR DOSE RANGE: Density Intact neurons Cingulate cortex", "setting": "[1]; [3]", "result": 0.8, "unit": "mg/kg"}, {"measurement": "EFFECTIVE DOSE OR DOSE RANGE: Density Intact neurons Hippocampus (CA3)", "setting": "[1]; [3]", "result": 0.8, "unit": "mg/kg"}, {"measurement": "EFFECTIVE DOSE OR DOSE RANGE: Density damaged neurons Cingulate cortex", "setting": "[1]; [3]", "result": 0.2, "unit": "mg/kg"}, {"measurement": "EFFECTIVE DOSE OR DOSE RANGE: Density damaged neurons Hippocampus (CA3)", "setting": "[1]; [3]", "result": 0.8, "unit": "mg/kg"}, {"measurement": "PRESENCE OF A SIGNIFICANT PEPTIDE EFFECT: Density Intact neurons Cingulate cortex", "setting": "[1]; [3]", "result": "Yes (p < 0.05)^3"}, {"measurement": "PRESENCE OF A SIGNIFICANT PEPTIDE EFFECT: Density Intact neurons Hippocampus (CA3)", "setting": "[1]; [3]", "result": "YES (P < 0.05)"}, {"measurement": "PRESENCE OF A SIGNIFICANT PEPTIDE EFFECT: Density damaged neurons Cingulate cortex", "setting": "[1]; [3]", "result": "YES (p < 0.01,"}, {"measurement": "PRESENCE OF A SIGNIFICANT PEPTIDE EFFECT: Density damaged neurons Hippocampus (CA3)", "setting": "[1]; [3]", "result": "YES (p < 0.05)^3"}, {"measurement": "minimum effective dose for neuroprotection in cingulate cortex", "setting": "[1]; daily s.c., day 28", "result": 0.2, "unit": "mg/kg"}, {"measurement": "minimum effective dose for neuroprotection in hippocampus", "setting": "[1]; daily s.c., day 28", "result": 0.8, "unit": "mg/kg"}, {"measurement": "β-amyloid burden in the cingulate cortex", "setting": "[1]; daily s.c., day 28, large variability among animals", "result": "Neither the lesion, nor the peptide had significant effects; also recorded: did not reach significance"}, {"measurement": "minimum effective dose for neuroprotection", "setting": "[1]; subcutaneous administration", "result": 0.2, "unit": "mg/kg"}, {"measurement": "minimum effective dose, social recognition memory deficit", "setting": "[1]; subcutaneous administration", "result": 0.8, "unit": "mg/kg"}, {"measurement": "duration of mnemotropic effects after administration", "setting": "intact adult rats; s.c. administration, short-term social memory", "result": "at least 72 hours"}, {"measurement": "minimum effective dose in SRT", "setting": "intact adult rats; s.c., administered twice (24 and 5 hours before first SRT), 5 hours post administration, intact rats", "result": "0.80 mg/kg and 0.8 mg/kg"}, {"measurement": "dose with significant social memory enhancing effect in SRT", "setting": "intact adult rats; [4]", "result": 2.50, "unit": "mg/kg"}, {"measurement": "social memory enhancing effect in SRT", "setting": "intact adult rats; [4]", "result": "Significant memory enhancing effects"}, {"measurement": "memory enhancing effect in SRT (recognition ratio)", "setting": "intact adult rats; single s.c. dose 8.0 mg/kg, tested 1 hour after administration, inter-trial interval 2 hours", "result": "significant memory enhancing effect"}, {"measurement": "memory enhancing effect in SRT (recognition ratio)", "setting": "intact adult rats; single s.c. dose 8.0 mg/kg, tested 73 hours after administration, inter-trial interval 2 hours", "result": "tendency to significance (p=0.06)"}, {"measurement": "memory enhancing effect in SRT (recognition ratio)", "setting": "intact adult rats; single s.c. dose 2.0, 4.0 and 8.0 mg/kg, 1 hour post administration", "result": "significant memory enhancing effect"}, {"measurement": "memory enhancing effect in SRT (recognition ratio)", "setting": "intact adult rats; single s.c. dose 4.0 and 8.0 mg/kg, 24 hours after administration", "result": "significant memory enhancing effect"}, {"measurement": "concentration range with neurite outgrowth promoting activity", "setting": "[2]", "result": "5 to 25", "unit": "µg/mL"}]}]}
